Literature values, collected in patent US20050244462A1, “Devices and methods for treating a mammalian eye” (Allergan, Inc., priority 2004, published 2005).

Conditions: steroidal anti-inflammatory efficacy in vivo; 25 mg hydrocortisone equivalent to 1 mg dexamethasone; Goodman and Gilman 8th ed. p. 1447

C[C@]12CCC(=O)C=C1CC[C@@H]1[C@@H]2[C@@H](O)C[C@@]2(C)[C@H]1CC[C@]2(O)C(=O)CO [hydrocortisone]
potency relative to dexamethasone: approximately twentyfivefold less potent than dexamethasone
